This note sets out measurements from patent US20060159639A1, “Pseudo body odor composition and perfume composition for inhibiting body odor” (priority 2003, published 2006).

This assay in a line: Suppression test of Experimental Example 1: masking and harmonizing effect in a cup, four expert panelists.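 As to harmonizing: score 1 means in harmony 0 indefinite and −1 not in harmony.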 The settings on record: for Masking: scale 0-3. As for the experimental part: In the present invention, the selection of the above component (I), component (II) and component (III) was carried out as follows. That is, one of the pseudo body odor compositions mentioned above and a target fragrance component were mixed and left at room temperature for 30 minutes. Thereafter, evaluations of the masking and harmonizing effects to the acid odor were carried out by four expert panelists.
After 30 minutes, a hole of about 1 cm in diameter was formed in the aluminum foil and the investigations of masking effect and the harmonizing effect were carried out according to following evaluation criteria by four expert panelists.
3: Excellent in the masking.
2: Substantially excellent in the masking.
1: Slightly sensible of the body odor (sweat odor and armpit odor).
0: Sensible of the body odor (sweat odor and armpit odor) (insufficient in the masking)

Where [1] appears, read: 200 μl pseudo body odor composition of Example 4 and 10 μl perfume on filter papers in sealed about 500 ml cup, after 30 minutes, four expert panelists.
Setting [2] is: 200 μl pseudo body odor composition of Example 4 and 10 μl perfume on filter papers in sealed about 500 ml cup, after 30 minutes, four expert panelists, scale −1 to 1.

Where two headings read alike, the source gives them in different places.

Regarding `CC(C)=CCCC(C)CC=O` (stereo not shown) [Citronellal], the Masking under setting [1] worked out at 3. The Harmonizing under setting [2] is given as 1.

Turning to Methylionone, the Masking under setting [1] stood at 2. For the same compound, the Harmonizing under setting [2] stood at 1.

On to `c1ccc2[nH]ccc2c1` [Indole], for which, under setting [1], the Masking was determined as 1.5 points. This compound had a Harmonizing under setting [2] of −1.

For `CC(=O)OC1CCC(C(C)(C)C)CC1` (stereo not shown) [p-tert-Butylcyclohexyl acetate], the Masking under setting [1] is given as 1.5 points. Under setting [2], the Harmonizing was −1.

Under setting [1], “2-butyl-4,6-dimethyl-dihydro-pyran [Vigorose]” gave a Masking of 3. The compound further yielded a Harmonizing under setting [2] of 1.

In turn, `O=c1ccc2ccccc2o1` [Coumarin] registered a Harmonizing under setting [2] of 1.

`COC(=O)c1ccccc1N` [Methyl anthranilate]: the Masking under setting [1] is on record as 2.5 points. In addition, the Harmonizing under setting [2] is given as 1.

With `CC(C)=CCCC(C)CCO` (stereo not shown) [Citronellol], under setting [1], the Masking stood at 2.5 points. Further, the Harmonizing under setting [2] turned out to be 1.

As for `C=CCCCCCCCCO` [Example 9-Decen-1-ol, 9-Decen-1-ol], the Masking under setting [1] was 1.5 points. Also, under setting [2], the Harmonizing stood at 0.

With `CC(=O)OCCc1ccccc1` [Phenylethyl acetate], under setting [1], the Masking stood at 2.5 points. In addition, the Harmonizing under setting [2] was 1.

Compound `C/C=C/C(=O)C1=C(C)C=CCC1(C)C` [Damascenone] displayed a Masking under setting [1] of 2. Also, the Harmonizing under setting [2] was found to be 1.

Under setting [1], `CC(C)=C[C@@H]1C[C@H](C)CCO1` [L-Rose oxide] gave a Masking of 3. The Harmonizing under setting [2] was 1.

Under setting [1], `CC(C=O)Cc1ccc2c(c1)OCO2` (stereo not drawn) [Helional, α-methyl-3,4-methylene dioxyhydrocinnamic aldehyde] returned a Masking of 1. Moreover, under setting [2], the Harmonizing was 0.

Under setting [1], `OCCc1ccccc1` [Phenylethyl alcohol] gave a Masking of 2.5 points. For the same compound, the Harmonizing under setting [2] is recorded as 1.

With `CCC(C)CCCC(C)(C)O` (stereo not shown) [Tetrahydromyrcenol], the Masking under setting [1] stood at 2. Under setting [2], this compound showed a Harmonizing of 0.

In turn, `CCCC(C)C(=O)OCC` (stereo not shown) [Ethyl-2-methyl valerate] showed a Masking under setting [1] of 3. Moreover, the Harmonizing under setting [2] is 1.

Methylionone soap displayed a Masking under setting [1] of 2. Further, under setting [2], the Harmonizing turned out to be 1.

As to `CCCCCCCCCC=O` [Decanal], the Masking under setting [1] worked out at 1. Further, the Harmonizing under setting [2] is recorded as −1.

`CC(=O)OCCC(C)CCC=C(C)C` (stereo not shown) [Citronellyl acetate] displayed a Masking under setting [1] of 1.5 points. This compound gave a Harmonizing under setting [2] of 0.

Turning to `C=CC(C)CCCC(C)(C)O` (stereo not shown) [Dihydromyrcenol], the Masking under setting [1] came out at 1.5 points. Under setting [2], this compound came in with a Harmonizing of −1.

`CC(=O)OC1CCCCC1C(C)(C)C` (stereo not shown) [2-tert-Butylcyclohexyl acetate] yielded a Masking under setting [1] of 2. For the same compound, the Harmonizing under setting [2] turned out to be 1.

Regarding `O=C(OCc1ccccc1)c1ccccc1O` [Benzyl salicylate], under setting [1], the Masking was 1. Moreover, the Harmonizing under setting [2] is reported as −1.

Consider `CC(=O)OC(c1ccccc1)C(Cl)(Cl)Cl` (stereo not shown) [Rosephenone, trichloromethyl phenyl carbinyl acetate], for which the Masking under setting [1] was 1.5 points. Also, the Harmonizing under setting [2] was determined as 0.

In the case of `O=C1CCCCCCCCOCCCCCCO1` [Oxalide, 10-oxa-16-hexadecanolide], under setting [1], the Masking was found to be 0. For the same compound, the Harmonizing under setting [2] was −1.

`O=Cc1ccc2c(c1)OCO2` [Heliotropine] yielded a Masking under setting [1] of 1.5 points. This compound registered a Harmonizing under setting [2] of 0.

`COc1ccc(C=O)cc1` [4-Methoxybenzaldehyde]: the Masking under setting [1] worked out at 2.5 points. The Harmonizing under setting [2] was 1.

Take `C=CC(C)(O)CCC=C(C)CC` (mixture of isomers) [Ethyl linalool]: under setting [1], the Masking was 1.5 points. Besides, the Harmonizing under setting [2] is recorded as 0.

`COC(=O)c1ccccc1` [Methyl benzoate] yielded a Masking under setting [1] of 3. Besides, the Harmonizing under setting [2] worked out at 1.

`CCOC(=O)C1C(C)CCCC1(C)C` (stereo not shown) [Thesaron, ethyl 2,2,6-trimethylcyclohexane carboxylate] had a Masking under setting [1] of 2. The Harmonizing under setting [2] is listed as 0.

`CCCCCC1C(=O)CCC1CC(=O)OC` (stereo not shown) [Methyl dihydrojasmonate] showed a Masking under setting [1] of 2. Also, the Harmonizing under setting [2] was 1.

On to `CCCCCC1=C(C)CCC1=O` [Dihydrojasmone, 3-methyl-2-pentyl-2-cyclopentene-1-one], for which the Masking under setting [1] turned out to be 1. This compound also had a Harmonizing under setting [2] of 0.

In turn, `CCCCCOC(=O)c1ccccc1O` [Amyl salicylate] came in with a Masking under setting [1] of 1. The same compound had a Harmonizing under setting [2] of 0.

`CCCCCCC(C=O)=Cc1ccccc1` [α-Hexyl cinnamic aldehyde] displayed a Harmonizing under setting [2] of −1.

Consider `CC(C=O)Cc1ccc(C(C)C)cc1` (stereo not shown) [Cyclamen aldehyde, 2-methyl-3-(4-isopropylphenyl)propanal], for which the Masking under setting [1] is given as 1.5 points. The same compound gave a Harmonizing under setting [2] of −1.

Under setting [1], `CC(C)[C@@H]1CC[C@@H](C)CC1=O` [Mentone] showed a Masking of 3. The same compound registered a Harmonizing under setting [2] of 1.

Consider `CC(=O)OCc1ccccc1` [Benzyl acetate], for which the Masking under setting [1] is 2.5 points. Also, the Harmonizing under setting [2] came out at 1.

`CC(C)c1ccc(C=O)cc1` [Cumin aldehyde] showed a Masking under setting [1] of 1.5 points. This compound displayed a Harmonizing under setting [2] of −1.

`CCCCCCCCCC(C)C=O` (stereo not shown) [2-Methyl undecanal]: under setting [2], the Harmonizing was found to be 0.

`CC/C=C\CC1=C(C)CCC1=O` [cis-Jasmone] gave a Masking under setting [1] of 1. The compound also showed a Harmonizing under setting [2] of −1.

Methyl naphthyl ketone: the Masking under setting [1] is recorded as 1.5 points. The Harmonizing under setting [2] is listed as −1.

The compound `O=C1CCCCCCCCCCCC(=O)OCCO1` [Musk T, ethylene brassylate] showed a Masking under setting [1] of 0.5 points. Moreover, the Harmonizing under setting [2] is reported as −1.

Under setting [1], `C=CCOC(=O)COCCC(C)C` [Allyl amyl glycolate] displayed a Masking of 3. Under setting [2], this compound returned a Harmonizing of 1.

Under setting [1], `CCCC(O)CCC1C(C)CCCC1(C)C` (stereo not shown) [Ambestol, 1-(2,2,6-trimethylcyclohexyl)-3-hexanol] returned a Masking of 0. Under setting [2], the Harmonizing is −1.

Under setting [1], `CC1(C)C2CCC1(C)C(O)C2` (stereo not shown) [Borneol] gave a Masking of 2.5 points. Also, the Harmonizing under setting [2] was 1.

Consider `CCCCCCOC(=O)c1ccccc1O` [Hexyl salicylate], for which the Masking under setting [1] is on record as 1. Moreover, the Harmonizing under setting [2] is given as −1.

Take `CC(C)(C)C1CCC(O)CC1` (stereo not shown) [p-tert-Butylcyclohexanol]: the Masking under setting [1] is 1.5 points. The Harmonizing under setting [2] came out at 0.

Turning to `COc1ccc(C)cc1` [p-Cresyl methyl ether], the Masking under setting [1] worked out at 3. The Harmonizing under setting [2] was found to be 1.

`CC(C)CCCC(C)CCO` (stereo not shown) [Dimethyl octanol] showed a Masking under setting [1] of 1.5 points. The Harmonizing under setting [2] stood at 0.

In turn, `C/C=C\C(=O)C1C(C)=CCCC1(C)C` (stereo not drawn) [α-Damascone] displayed a Masking under setting [1] of 2. Under setting [2], this compound had a Harmonizing of 0.

Under setting [1], `CC(=O)C1=C(C)[C@@H]2C[C@@]3(C1)[C@H](C)CC[C@H]3C2(C)C` [Woodyflor, acetylcedrene] yielded a Masking of 1.5 points. Also, the Harmonizing under setting [2] is given as −1.

As to `CCCCCCCC1CCC(=O)O1` (stereo not shown) [γ-Undecalactone], the Harmonizing was 1.

In turn, `O=CCc1ccccc1` [Phenyl acetoaldehyde] displayed a Masking under setting [1] of 3. The Harmonizing under setting [2] worked out at 1.

On to `CC(=O)OC/C=C(\C)CCC=C(C)C` [Geranyl acetate], for which the Masking under setting [1] was 1. Also, the Harmonizing under setting [2] is −1.

`CCc1ccc(CC(C)(C)C=O)cc1` [Floralozone, p-ethyl-α,α-dimethyl phenyl propyl aldehyde]: the Masking under setting [1] is on record as 1.5 points. Under setting [2], this compound showed a Harmonizing of 0.

Under setting [1], `C=CCCC(=O)C1=CCCC(C)(C)C1` [α-Dynascone, 1-(5,5-dimethyl-cyclohexene-1-yl)-4-pentene-1-one] yielded a Masking of 3. Also, under setting [2], the Harmonizing was 1.

`CCOC(=O)C1OC1(C)c1ccccc1` (stereo not shown) [Ethyl-3-methyl-3-phenyl glycidate] showed a Masking under setting [1] of 2. The Harmonizing under setting [2] is 0.

Compound `CC(=O)OC(C)(C)Cc1ccccc1` [Dimethylbenzyl carbinyl acetate] showed a Masking under setting [1] of 1. Further, under setting [2], the Harmonizing is given as −1.

With `CC(=O)C1(C)CC2=C(CCCC2(C)C)CC1C` (stereo not shown) [Iso E super, 7-acetyl-1,2,3,4,5,6,7,8-octahydro-1,1,6,7-tetramethyl naphthalene], the Masking under setting [1] turned out to be 1. Under setting [2], this compound registered a Harmonizing of −1.

In the case of `CC(C)=CCCC(C)=CC=O` [Citral], the Masking under setting [1] is given as 3. The Harmonizing under setting [2] stood at 1.

Regarding `CC(=O)OC1CC2CC1C1CC=CC21` (stereo not shown) [Tricyclodecenyl acetate], the Masking under setting [1] stood at 1.5 points. Under setting [2], this compound displayed a Harmonizing of 0.

In the case of `COc1ccc2ccccc2c1` [β-Naphthol methyl ether], the Harmonizing is given as 1.

For `CCC(O)COC1CCCCC1C(C)(C)C` (stereo not shown) [Amber core, 1-(2-tert-butylcyclohexyloxy)butane-2-ol], the Masking under setting [1] came to 0.5 points. The compound also returned a Harmonizing under setting [2] of −1.

Under setting [1], `C=CCCC(=O)/C=C/C1C(C)=CCCC1(C)C` (stereo not shown) [Allylionone] displayed a Masking of 2.5 points. Under setting [2], this compound gave a Harmonizing of 0.
